Results published in the NIST ThermoML archive (doi:10.1016/j.jct.2017.05.001).

Experiment: wn = mass fraction of the nth substance listed
Conditions: Liquid; for mass density: Vibrating tube method

OCCN(CCO)CCO [triethanolamine] + O
viscosity [mPa·s]
Conditions | w1 = 0.0992 | w1 = 0.1 | w1 = 0.2 | w1 = 0.2991 | w1 = 0.3 | w1 = 0.4
293.15 K, 100 kPa, Concentric cylinders viscometry | – | 1.41 | 2.066 | – | 3.197 | 5.34
293.15 K, 100 kPa, Falling or rolling sphere viscometry | 1.429 | – | 2.037 | 3.208 | – | 5.317
293.15 K, 5000 kPa, Falling or rolling sphere viscometry | 1.459 | – | 2.036 | 3.212 | – | 5.311
293.15 K, 10000 kPa, Falling or rolling sphere viscometry | 1.455 | – | 2.035 | 3.229 | – | 5.331
293.15 K, 15000 kPa, Falling or rolling sphere viscometry | 1.454 | – | 2.04 | 3.18 | – | 5.376
293.15 K, 20000 kPa, Falling or rolling sphere viscometry | 1.45 | – | 2.042 | 3.234 | – | 5.417
293.15 K, 25000 kPa, Falling or rolling sphere viscometry | 1.447 | – | 2.044 | 3.242 | – | 5.445
293.15 K, 30000 kPa, Falling or rolling sphere viscometry | 1.446 | – | 2.046 | 3.245 | – | 5.5
293.15 K, 40000 kPa, Falling or rolling sphere viscometry | 1.443 | – | 2.051 | 3.288 | – | 5.549
293.15 K, 60000 kPa, Falling or rolling sphere viscometry | 1.44 | – | 2.064 | 3.325 | – | 5.675
293.15 K, 80000 kPa, Falling or rolling sphere viscometry | 1.447 | – | 2.08 | 3.373 | – | 5.792
293.15 K, 100000 kPa, Falling or rolling sphere viscometry | 1.448 | – | 2.098 | 3.446 | – | 5.987
313.15 K, 100 kPa, Concentric cylinders viscometry | – | 0.881 | 1.244 | – | 1.786 | 2.756
313.15 K, 100 kPa, Falling or rolling sphere viscometry | 0.909 | – | 1.203 | 1.786 | – | 2.788
313.15 K, 5000 kPa, Falling or rolling sphere viscometry | 0.8937 | – | 1.208 | 1.797 | – | 2.794
313.15 K, 10000 kPa, Falling or rolling sphere viscometry | 0.8956 | – | 1.21 | 1.808 | – | 2.797
313.15 K, 15000 kPa, Falling or rolling sphere viscometry | 0.8964 | – | 1.214 | 1.818 | – | 2.828
313.15 K, 20000 kPa, Falling or rolling sphere viscometry | 0.8965 | – | 1.22 | 1.832 | – | 2.852
313.15 K, 25000 kPa, Falling or rolling sphere viscometry | 0.8977 | – | 1.225 | 1.835 | – | 2.866

mass density [kg/m3]
Conditions | w1 = 0.0992 | w1 = 0.2 | w1 = 0.2991 | w1 = 0.4
293.15 K, 100 kPa | 1013.3 | 1029.5 | 1046.1 | 1065.2
293.15 K, 500 kPa | 1013.5 | 1029.5 | 1046.2 | 1065.3
293.15 K, 1000 kPa | 1013.7 | 1029.7 | 1046.4 | 1065.4
293.15 K, 2000 kPa | 1014.2 | 1030.2 | 1046.8 | 1065.8
293.15 K, 5000 kPa | 1015.5 | 1031.4 | 1047.9 | 1066.9
293.15 K, 10000 kPa | 1017.6 | 1033.4 | 1049.8 | 1068.7
293.15 K, 15000 kPa | 1019.6 | 1035.4 | 1051.7 | 1070.5
293.15 K, 20000 kPa | 1021.8 | 1037.4 | 1053.7 | 1072.3
293.15 K, 30000 kPa | 1026 | 1041.4 | 1057.4 | 1075.8
293.15 K, 40000 kPa | 1030 | 1045.2 | 1061.1 | 1079.3
293.15 K, 50000 kPa | 1034 | 1049 | 1064.7 | 1082.7
293.15 K, 60000 kPa | 1037.9 | 1052.7 | 1068.3 | 1086.1
293.15 K, 70000 kPa | 1041.8 | 1056.4 | 1071.8 | 1089.4
293.15 K, 80000 kPa | 1045.5 | 1059.8 | 1075.1 | 1092.5
293.15 K, 90000 kPa | 1049.1 | 1063.4 | 1078.5 | 1095.8
293.15 K, 100000 kPa | 1052.9 | 1066.9 | 1081.8 | 1098.9
293.15 K, 110000 kPa | 1056.3 | 1070.2 | 1084.9 | 1101.8
293.15 K, 120000 kPa | 1059.8 | 1073.6 | 1088.2 | 1104.9
293.15 K, 130000 kPa | 1063.3 | 1077 | 1091.5 | 1107.9
293.15 K, 140000 kPa | 1066.5 | 1080.1 | 1094.5 | 1110.8
313.15 K, 100 kPa | 1006.9 | 1021.9 | 1037.4 | 1055.1
313.15 K, 500 kPa | 1007 | 1022.1 | 1037.5 | 1055.3
313.15 K, 1000 kPa | 1007.2 | 1022.3 | 1037.7 | 1055.4
313.15 K, 2000 kPa | 1007.6 | 1022.7 | 1038.1 | 1055.8
313.15 K, 5000 kPa | 1008.9 | 1023.9 | 1039.3 | 1056.9
313.15 K, 10000 kPa | 1010.9 | 1025.9 | 1041.2 | 1058.8
313.15 K, 15000 kPa | 1013 | 1027.8 | 1043.1 | 1060.6
313.15 K, 20000 kPa | 1015 | 1029.7 | 1045 | 1062.4
